{"source": "patent US20200316208A1", "about": "“MECHANICAL PROCESSING OF BIOPOLYMERS” (SolyPlus Berlin GmbH, priority 2017, published 2020)", "tested_on": "skin", "settings": "application to skin; 0.3% (m/m) histamine dihydrochloride solution used", "data": [{"compound": "Cl.Cl.NCCc1c[nH]cn1", "note": "[histamine solution droplet, Histamine dihydrochloride]", "values": [{"measurement": "skin reaction (swelling, reddening, itchy feeling)", "value": "No effect"}]}]}
